Reference: ChEMBL document CHEMBL3217566, “Unprecedented inhibition of resistant penicillin binding proteins by bis-2-oxoazetidinyl macrocycles” (Medchemcomm, 2012)

How the values were obtained:
[1] = tested on: Staphylococcus aureus; assay: Inhibition of methicillin-resistant Staphylococcus aureus ATCC 43300 PBP5 assessed as residual activity at 1 mM after 4 hrs by fluorescence spectroscopy in presence of fluorescein-labeled ampicillin
[2] = tested on: Actinomadura sp. R39; assay: Inhibition of Actinomadura R39 D,D-peptidase assessed as inhibition of hydrolysis of thiolester substrate S2d measured as residual activity at 100 uM after 1 hr by Ellman's method
[3] = tested on: Enterococcus faecium; assay: Inhibition of Enterococcus faecium D63r PBP5 assessed as assessed as residual activity at 1 mM after 4 hrs by fluorescence spectroscopy in presence of fluorescein-labeled ampicillin

Row | SMILES | Activity [1] | Activity [2] | Activity [3]
1 | CCCCC(=O)N1C[C@H](NC(=O)CCCC/C=C/CCCCC(=O)N[C@H]2CN(C(=O)CCCC)C2=O)C1=O | 89% | 90% | 5%
2 | CCCCCCC(=O)N[C@H]1CN(C(=O)CCCCCCC(=O)N2C[C@H](NC(=O)CCCCCC)C2=O)C1=O | 99% | 74% | 10%
3 | C=CCCCC(=O)N[C@H]1CN(C(=O)CCC=C)C1=O | 93% | 98% | 14%
4 | C=CCCC(=O)N1C[C@H](NC(=O)CCCCCC)C1=O | 100% | 92% | 6%
5 | C=CCCCCC(=O)N[C@H]1CN(C(=O)CCCC)C1=O | 100% | 97% | 5%
6 | C=CCCCCC(=O)N[C@H]1CN(C(=O)CCCC=C)C1=O | 85% | 74% | 21%
7 | C=CCCCCC(=O)N1C[C@H](NC(=O)CCC=C)C1=O | 77% | 72% | 50%
8 | C=CCCCCC(=O)N[C@H]1CN(C(=O)CCC=C)C1=O | 89% | 91% | 14%
9 | C=CCCCCC(=O)N[C@H]1CN(C(=O)CCCCC=C)C1=O | 81% | 80% | 23%
10 | CCCCCCC(=O)N[C@H]1CN(C(=O)CC/C=C/CCC(=O)N2C[C@H](NC(=O)CCCCCC)C2=O)C1=O | 100% | 100% | 0%
11 | C=CCCCC(=O)N[C@H]1CN(C(=O)CCCC=C)C1=O | 100% | 90% | 17%
12 | C=CCCCC(=O)N1C[C@H](NC(=O)CCC=C)C1=O | 100% | 99% | 39%
13 | C=CCCCCC(=O)N1C[C@H](NC(=O)CCCC=C)C1=O | 82% | 86% | 15%
14 | CCCCC(=O)N1C[C@H](NC(=O)CCCCCCCCCCC(=O)N[C@H]2CN(C(=O)CCCC)C2=O)C1=O | 90% | 89% | 3%
15 | C=CCCC(=O)N[C@H]1CN(C(=O)CCC=C)C1=O | 79% | 72% | > 100%
